From PubChem BioAssay (NCI)
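A five-concentration, 48-hour dose response in 96-well plates underlies each endpoint, interpolated linearly between surrounding concentrations. GI50 = concentration required for 50% inhibition of growth. The concentration for full growth arrest is given as TGI.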

Experiments:
Experiment in all cases: NCI-60 cell line screen, 48 h
[1] = tested on: OVCAR-3 ovarian
[2] = tested on: KM12 colon
[3] = tested on: IGROV1 ovarian
[4] = tested on: HCT-116 colon
[5] = tested on: UACC-62 melanoma
[6] = tested on: T-47D breast
[7] = tested on: SF-539 CNS
[8] = tested on: SR leukemia
[9] = tested on: RXF 393 renal
[10] = tested on: OVCAR-5 ovarian
[11] = tested on: A498 renal
[12] = tested on: COLO 205 colon
[13] = tested on: UO-31 renal
[14] = tested on: MDA-MB-231 breast
[15] = tested on: RPMI-8226 leukemia
[16] = tested on: HCC-2998 colon
[17] = tested on: SNB-75 CNS
[18] = tested on: SK-MEL-28 melanoma
[19] = tested on: OVCAR-8 ovarian
[20] = tested on: K-562 leukemia
[21] = tested on: NCI-H460 lung
[22] = tested on: SW-620 colon
[23] = tested on: SK-OV-3 ovarian
[24] = tested on: HCT-15 colon
[25] = tested on: MCF7 breast
[26] = tested on: 786-0 renal
[27] = tested on: HS 578T breast
[28] = tested on: NCI-H23 lung
[29] = tested on: ACHN renal
[30] = tested on: MALME-3M melanoma
[31] = tested on: BT-549 breast
[32] = tested on: MDA-MB-435
[33] = tested on: NCI-H226 lung
[34] = tested on: NCI-H522 lung
[35] = tested on: SN12C renal
[36] = tested on: NCI/ADR-RES ovarian
[37] = tested on: HT29 colon
[38] = tested on: A549 NSCLC
[39] = tested on: PC-3 prostate
[40] = tested on: SNB-19 CNS
[41] = tested on: CAKI-1 renal
[42] = tested on: HOP-62 NSCLC
[43] = tested on: TK-10 renal
[44] = tested on: SF-268 CNS
[45] = tested on: CCRF-CEM leukemia
[46] = tested on: SK-MEL-5 melanoma
[47] = tested on: UACC-257 melanoma
[48] = tested on: MOLT-4 leukemia
[49] = tested on: HL-60(TB) leukemia
[50] = tested on: SF-295 CNS
[51] = tested on: OVCAR-4 ovarian
[52] = tested on: DU-145 prostate
[53] = tested on: M14 melanoma

For `FC(F)(F)c1ccc(-c2cnc(Cl)nc2NC2CCCCCC2)cc1`, the GI50 [1] was > 100 µM, the TGI [1] was > 100 µM and the GI50 [2] was 97.1 µM. For the same compound, the TGI [2] was > 100 µM, the GI50 [3] was > 100 µM and the TGI [3] was > 100 µM. The GI50 [4] was 35.5 µM, the TGI [4] was > 100 µM and the GI50 [5] was > 100 µM. The TGI [5] was > 100 µM, the GI50 [6] was 19.1 µM and the TGI [6] was > 100 µM. For the same compound, the GI50 [7] was > 100 µM, the TGI [7] was > 100 µM and the GI50 [8] was 38.9 µM. The TGI [8] was > 100 µM, the GI50 [9] was > 100 µM and the TGI [9] was > 100 µM. For the same compound, the GI50 [10] was > 100 µM, the TGI [10] was > 100 µM and the GI50 [11] was > 100 µM. The TGI [11] was > 100 µM, the GI50 [12] was 95.5 µM and the TGI [12] was > 100 µM. The GI50 [13] was > 100 µM, the TGI [13] was > 100 µM and the GI50 [14] was 36.4 µM. The TGI [14] was > 100 µM, the GI50 [15] was 8.03 µM and the TGI [15] was > 100 µM. For the same compound, the GI50 [16] was > 100 µM, the TGI [16] was > 100 µM and the GI50 [17] was 80.6 µM. For the same compound, the TGI [17] was > 100 µM, the GI50 [18] was > 100 µM and the TGI [18] was > 100 µM. For the same compound, the GI50 [19] was > 100 µM, the TGI [19] was > 100 µM and the GI50 [20] was 54.1 µM. The TGI [20] was > 100 µM, the GI50 [21] was 73.1 µM and the TGI [21] was > 100 µM. For the same compound, the GI50 [22] was > 100 µM, the TGI [22] was > 100 µM and the GI50 [23] was > 100 µM. For the same compound, the TGI [23] was > 100 µM, the GI50 [24] was > 100 µM and the TGI [24] was > 100 µM. For the same compound, the GI50 [25] was 31.2 µM, the TGI [25] was > 100 µM and the GI50 [26] was > 100 µM. For the same compound, the TGI [26] was > 100 µM, the GI50 [27] was > 100 µM and the TGI [27] was > 100 µM. For the same compound, the GI50 [28] was 61.1 µM, the TGI [28] was > 100 µM and the GI50 [29] was > 100 µM. For the same compound, the TGI [29] was > 100 µM, the GI50 [30] was > 100 µM and the TGI [30] was > 100 µM. For the same compound, the GI50 [31] was > 100 µM, the TGI [31] was > 100 µM and the GI50 [32] was > 100 µM. The TGI [32] was > 100 µM, the GI50 [33] was > 100 µM and the TGI [33] was > 100 µM. The GI50 [34] was 45.4 µM, the TGI [34] was > 100 µM and the GI50 [35] was > 100 µM. For the same compound, the TGI [35] was > 100 µM, the GI50 [36] was > 100 µM and the TGI [36] was > 100 µM. For the same compound, the GI50 [37] was 71.1 µM, the TGI [37] was > 100 µM and the GI50 [38] was > 100 µM. For the same compound, the TGI [38] was > 100 µM, the GI50 [39] was 28.7 µM and the TGI [39] was > 100 µM. For the same compound, the GI50 [40] was > 100 µM, the TGI [40] was > 100 µM and the GI50 [41] was 57.4 µM. The TGI [41] was > 100 µM, the GI50 [42] was > 100 µM and the TGI [42] was > 100 µM. For the same compound, the GI50 [43] was > 100 µM, the TGI [43] was > 100 µM and the GI50 [44] was > 100 µM. For the same compound, the TGI [44] was > 100 µM, the GI50 [45] was 27.9 µM and the TGI [45] was > 100 µM. The GI50 [46] was 62.8 µM, the TGI [46] was > 100 µM and the GI50 [47] was > 100 µM. For the same compound, the TGI [47] was > 100 µM, the GI50 [48] was 32.7 µM and the TGI [48] was > 100 µM. For the same compound, the GI50 [49] was 24.9 µM, the TGI [49] was > 100 µM and the GI50 [50] was 69.7 µM. The TGI [50] was > 100 µM, the GI50 [51] was 38.7 µM and the TGI [51] was > 100 µM. The GI50 [52] was > 100 µM, the TGI [52] was > 100 µM and the GI50 [53] was > 100 µM. The TGI [53] was > 100 µM.
